Where two headings read alike, the source gives them in different places. Values belong to the molecule of their own block, whether it stands above or below them.
Columns and labels:
[1] = 1–2 h after oral administration; cited from earlier work
[2] = Cytotoxicity on RAW 264.7 macrophages; format: cell-based, murine; conditions: mouse, 48 h incubation, read-out: Cytotoxicity on RAW 264.7 Macrophages CC50 (µM) ± SD
Protocol: (§1) Cytotoxicity was evaluated on RAW 264.7 macrophages that were maintained at 37 °C with 5% CO2 in Dulbecco’s Modified Eagle’s Medium (DMEM, Invitrogen, Toulouse, France) supplemented with 100 U/mL penicillin-streptomycin (Invitrogen) and 10% heat-inactivated fetal bovine serum, as previously described. Briefly, cells were plated in 96-well microplates at a density of 2 × 10^4 cells per well. After incubation for 24 h at 37 °C in 5% CO2, the medium was removed from each well and 100 µL of medium containing 2-fold serial dilutions of compounds was added to each well. After 48 h incubation at 37 °C in 5% CO2, 10 µL of 450 µM resazurin was added to each well and further incubated in the dark for 4 h. Cell viability was determined as described above. The cytotoxicity of the compounds was expressed as CC50.

RAW 264.7 macrophages = assay: Cytotoxicity on RAW 264.7 macrophages; format: cell-based, murine; conditions: 48 h incubation; 2880 min; read-out: Cytotoxicity on RAW 264.7 Macrophages CC50 (µM) ± SD
Protocol: as §1

[3] = Cytotoxicity on primary mouse macrophages (PMM); conditions: mouse
Protocol: (§2) Toxicity in human fetal lung fibroblast (MRC-5) cell line and primary mouse macrophages (PMM) was assessed using a previously reported assay in 96-well microtiter plates. Tamoxifen and miltefosine were included as reference drugs (Table 10).
(§3) For MRC5SV2 or PMM cells, the assays were performed in 96-well microtiter plates, each well containing 10 µL of compound dilution and 190 µL of cell inoculum (3 × 10^4 cells/mL) as reported. Cell growth was compared to untreated controls (100% growth) and assay-media controls (0% growth). After three-day incubation, cell viability was assessed fluorometrically by adding resazurin [50 µL/well of a stock solution in phosphate buffer (50 µg/mL)], incubating for 4 h and measuring fluorescence (ex 550 nm, em 590 nm). The results are expressed as percentage reduction in cell growth as compared to untreated control wells. […] Tamoxifen was included as the reference drug.

S. mansoni TGR [4] = target: T1, S. mansoni TGR (Schistosoma mansoni, UniProt Q962Y6); design: method as in PMID 17579510
T1 construct: made in house; host or cells: E. coli
T1 sequence (Q962Y6 1-598): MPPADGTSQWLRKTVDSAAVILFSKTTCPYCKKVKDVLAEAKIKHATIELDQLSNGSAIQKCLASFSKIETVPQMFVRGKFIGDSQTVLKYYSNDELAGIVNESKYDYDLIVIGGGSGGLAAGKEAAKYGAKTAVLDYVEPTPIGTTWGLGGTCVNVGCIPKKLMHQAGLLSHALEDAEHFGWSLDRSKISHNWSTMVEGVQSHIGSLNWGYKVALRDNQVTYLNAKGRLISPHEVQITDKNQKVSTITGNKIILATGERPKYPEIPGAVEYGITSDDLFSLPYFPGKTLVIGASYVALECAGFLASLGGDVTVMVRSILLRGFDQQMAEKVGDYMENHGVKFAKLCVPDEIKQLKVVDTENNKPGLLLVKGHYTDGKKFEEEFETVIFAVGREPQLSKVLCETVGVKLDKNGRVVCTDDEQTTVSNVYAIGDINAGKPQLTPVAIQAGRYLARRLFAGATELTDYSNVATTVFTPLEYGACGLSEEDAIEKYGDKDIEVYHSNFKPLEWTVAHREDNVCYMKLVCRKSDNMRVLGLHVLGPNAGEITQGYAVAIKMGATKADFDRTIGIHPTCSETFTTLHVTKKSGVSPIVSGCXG

[5] = Cytotoxicity on human fetal lung fibroblast MRC-5; conditions: human
Protocol: as §2, §3

S. mansoni TGR [6] = target: T1, S. mansoni TGR; assay: biochemical
Protocol: Enzymes were prepared in E. coli as described. Assays were performed at 25 °C in 0.1 M potassium phosphate (pH 7.4), 10 mM EDTA using 100 μM NADPH and 3 mM dithiobis(2-nitrobenzoic acid) (DTNB). […] The increase in A412 during the first 3 min was recorded upon DTNB addition. The reaction was done in triplicate.

S. mansoni TGR [7] = target: T1, S. mansoni TGR; design: method as in PMID 17579510; remark: listed apart in the source
S. mansoni TGR [8] = target: T1, S. mansoni TGR; design: method as in PMID 17579510; remark: listed apart in the source
[9] = test system: L. infantum MHOM/MA (BE)/67 amastigotes; assay: Anti-leishmanial activity, L. infantum amastigotes in primary peritoneal mouse macrophages; format: cell-based, Leishmania infantum
Protocol: Anti-leishmanial activity: L. infantum MHOM/MA (BE)/67 amastigotes were collected from the spleen of an infected donor hamster and used to infect primary peritoneal mouse macrophages grown in a 96-well plate. After 2 days outgrowth, 5 × 10^5 amastigotes were added to each well and incubated for 2 h at 37 °C. The compounds were subsequently added and the plates were further incubated for 5 days at 37 °C and 5% CO2. Parasite burdens (mean number of amastigotes/macrophage) were microscopically assessed on 500 cells after Giemsa staining and expressed as a percentage of the blank controls. Miltefosine was included as reference drug. The use of laboratory rodents was carried out in accordance to all mandatory guidelines (EU directives, including the Revised Directive 2010/63/EU on the Protection of Animals used for Scientific Purposes that came into force on 1 January 2013, and the declaration of Helsinki in its latest version) and was approved by the Ethical Committee of the University of Antwerp, Belgium [UA-ECD 2011–77 (17-02-2012 and UA-ECD 2015-90].

[10] = target: human thioredoxin reductase (TrxR); design: method as in PMID 9685351; conditions: cited from earlier work
Human TrxR [11] = conditions: 3 mM DTNB, read-out: IC50 Human TrxR, substrate DTNB, cited from earlier work
Human GR = conditions: read-out: IC50 Human GR, substrate GSSG, cited from earlier work
T. cruzi Tulahuen CL2 = assay: Anti-Chagas activity, T. cruzi on MRC-5 cells; format: cell-based; conditions: Trypanosoma cruzi, TULAHUEN, MRC5, 168 h; amastigotes, MRC-5 host cells, 7 days; read-out: Trypanosoma cruzi IC50 (µM) ± SD
Protocol: Anti-Chagas activity: T. cruzi Tulahuen CL2 (benznidazole-sensitive, LacZ-reporter strain) was maintained on MRC-5 cells in minimal essential medium (MEM) supplemented with […], 16.5 mM sodium hydrogen carbonate and 5% FCS. In the assay, 4 × 10^3 MRC-5 cells and 4 × 10^4 parasites were added to each well. After incubation at 37 °C for 7 days, parasite growth was assessed by adding the substrate chlorophenol red -D-galactopyranoside. The color reaction was read at 540 nm after 4 h and absorbance values were expressed as a percentage of the blank controls. Benznidazole was included as reference drug.

Human TrxR [12] = conditions: 20 µM substrate, after 10 min enzyme-NADPH-gold complex preincubation, read-out: IC50 Human TrxR, substrate hTrxC72S, cited from earlier work
[13] = test system: Leishmania donovani LV9 intramacrophage amastigotes; assay: L. donovani LV9 intramacrophage amastigotes; format: cell-based; conditions: Leishmania donovani; read-out: Leishmania Donovani LV9 Intramacrophage Amastigotes IC50 (µm) ± SD
Protocol: (§4) In vitro anti-leishmanial evaluation was perfomed on both axenic and intramacrophage L. donovani amastigotes as previously described. […] Briefly, compounds were distributed in 96-well plates using 2-fold dilutions in 100 µL PYG medium. A. castellanii trophozoites were added to each well at 5 × 10^4 amoeba/mL in 200 µL final volume. L. donovani axenic amastigotes were added to each well at 10^6 parasites/mL in 200 µL final volume. After 72 h incubation at 27 °C, 20 µL of 1 mM resazurin was added to each well and further incubated at 27 °C for 8 h for A. castellanii and for 24 h for L. donovani axenic amastigotes. In living cells, resazurin is reduced in resorufin. This conversion is monitored by measuring the absorbance at specific wavelengths of resorufin (570 nm) and resazurin (600 nm) using a microplate reader (Labsystems Multiskan MS, McLean, VA, USA). In this assay, the activity was expressed in IC50. Miltefosine and pentamidine were used as reference drugs. All experiments were performed in three independent experiments.

[14] = test system: Leishmania donovani LV9 axenic amastigotes; assay: L. donovani LV9 axenic amastigotes (resazurin); format: cell-based; conditions: Leishmania donovani; read-out: Leishmania donovani LV9 Axenic Amastigotes IC50 (µM) ± SD
Protocol: as §4

[15] = test system: T. b. brucei Squib-427 strain; assay: Anti-trypanosomal activity, T. b. brucei trypomastigotes (resazurin); format: cell-based, Trypanosoma brucei brucei; conditions: Trypanosoma brucei, 72 h
Protocol: (§5) Anti-trypanosomal activity: T. b. brucei Squib-427 strain (suramin-sensitive) and T. b. gambiense (ITMAP/1893) were cultured at 37 °C and 5% CO2 in HMI-9 medium supplemented with 10% FCS [90]. About 10^4 trypomastigotes/well were added to each well and parasite growth was assessed after 72 h at 37 °C by adding resazurin and reading at ex 550 nm, em 590 nm. Suramin was included as reference drug for T. b. brucei and pentamidine for T. b. gambiense.

[16] = test system: Acanthamoeba castellanii ATCC 30010; assay: Anti-acanthamoebal activity on A. castellanii trophozoites (resazurin); format: cell-based; conditions: ATCC30010, 72 h, read-out: Acanthamoeba castellanii ATCC 30010 IC50 (µM) ± SD
Protocol: as §4

[17] = test system: T. b. gambiense (ITMAP/1893); assay: Anti-trypanosomal activity, T. b. gambiense trypomastigotes (resazurin); format: cell-based, Trypanosoma brucei gambiense; conditions: Trypanosoma brucei, GAMBIENSE, 72 h, read-out: T. b. gambiense IC50 (µM) ± SD
Protocol: as §5

SMILES: CC[P](CC)(CC)=[Au][S][C@@H]1O[C@H](COC(C)=O)[C@@H](OC(C)=O)[C@H](OC(C)=O)[C@H]1OC(C)=O [Auranofin]
drug remaining in the plasma [1]: 15–25%
plasma concentration [1]: 10000 ng/mL
CC50 at 48 h ([2]; raw 264.7 macrophages): ~4 µM
CC50 (RAW 264.7 macrophages): 4.43 ± 0.08 µM
CC50 at 72 h ([3]; primary macrophages): 2000 nM
IC50 (S. mansoni TGR [4]; read-out: IC50 S. mansoni TGR, substrate DTNB; 20 nM enzyme, 3 mM DTNB; after 15 min preincubation; cited from earlier work): 7 nM
CC50 at 72 h ([5]; mrc-5 cells): 520 nM
IC50 (S. mansoni TGR [6]): 1.1 nM
IC50 (S. mansoni TGR [7]; read-out: IC50 S. mansoni TGR, substrate GSSG; 20 nM enzyme, 100 µM GSSG; after 15 min preincubation; cited from earlier work): 9 nM
IC50 (S. mansoni TGR [8]; read-out: IC50 S. mansoni TGR, substrate HED + GSSG; 20 nM enzyme, 8 mM substrate; after 15 min preincubation; cited from earlier work): 6 nM
IC50 versus CC50 in the assays with mouse macrophages ([9]; L. infantum amastigotes, equal IC50 and CC50 values): non-specific activity

SMILES: OC[C@H]1O[C@H]([S-])[C@H](O)[C@@H](O)[C@@H]1O.[Au+] [Aurothioglucose]
IC50 (S. mansoni TGR [4]; 20 nM enzyme, 3 mM DTNB; after 15 min preincubation; read-out: IC50 S. mansoni TGR, substrate DTNB; cited from earlier work): 70 nM
Ki [10]: 4 nM
IC50 (Human TrxR [11]; 2 nM enzyme, steady state kinetic studies): 65 nM
IC50 (S. mansoni TGR [7]; 20 nM enzyme, 100 µM GSSG; after 15 min preincubation; read-out: IC50 S. mansoni TGR, substrate GSSG; cited from earlier work): 3000 nM
IC50 (Human GR; 1.5 nM enzyme, 1 mM GSSG, steady state kinetic studies): > 100000 nM
IC50 (S. mansoni TGR [8]; 20 nM enzyme, 8 mM substrate; after 15 min preincubation; read-out: IC50 S. mansoni TGR, substrate HED + GSSG; cited from earlier work): 400 nM

SMILES: O=C(Cn1ccnc1[N+](=O)[O-])NCc1ccccc1 [Benznidazole, reference compound]
IC50 (T. cruzi Tulahuen CL2): 2.89 ± 0.94 µM

SMILES: [Cl][Au][PH]1(c2ccccc2)C(c2ccccn2)=CC=C1c1ccccn1 [GoPI, {1-phenyl-2,5-di(2-pyridyl)phosphole}AuCl]
IC50 (Human TrxR [12]; 24 nM enzyme): 6.9 nM
IC50 (Human TrxR [12]; 30 nM enzyme): 7 nM
IC50 (Human TrxR [11]; 3.7 nM enzyme, after 10 min preincubation): 1 nM
IC50 (Human TrxR [11]; […] enzyme, after 10 min preincubation): 0.8 nM
IC50 (Human GR; 1.4-[…] enzyme, 100 µM GSSG, after 10 min preincubation): 2 nM
IC50 (Human GR; […] enzyme, 100 µM GSSG, after 10 min preincubation): 1 nM

IC50 [13]: 4490 ± 1080 nM
IC50 [14]: 1.28 ± 0.12 µM
IC50 [16]: 9.21 ± 2.04 µM
IC50 ([9]; Leishmania infantum, Macrophage, 120 h, amastigotes in primary peritoneal mouse macrophages, 5 days, read-out: Leishmania infantum IC50 (µM) ± SD): 11.3 ± 2.88 µM
SMILES: CCCCCCCCCCCCCCCCOP(=O)([O-])OCC[N+](C)(C)C [Miltefosine]
CC50 at 48 h ([2]; RAW 264.7 macrophages): > 25 µM
CC50 at 3 days [3]: 20000 nM
IC50 [15]: 11400 nM

IC50 [16]: 1.39 ± 0.37 µM
SMILES: N=C(N)c1ccc(OCCCCCOc2ccc(C(=N)N)cc2)cc1 [Pentamidine]
CC50 at 48 h ([2]; RAW 264.7 macrophages): > 25 µM
IC50 [17]: 0.0011 ± 0.0001 µM

SMILES: Cc1ccc(C(=O)Nc2ccc(S(=O)(=O)O)c3cc(S(=O)(=O)O)cc(S(=O)(=O)O)c23)cc1NC(=O)c1cccc(NC(=O)Nc2cccc(C(=O)Nc3cc(C(=O)Nc4ccc(S(=O)(=O)O)c5cc(S(=O)(=O)O)cc(S(=O)(=O)O)c45)ccc3C)c2)c1 [Suramin]
IC50 [15]: 30 nM

SMILES: CC/C(=C(\c1ccccc1)c1ccc(OCCN(C)C)cc1)c1ccccc1 [Tamoxifen]
CC50 at 3 days [5]: 10600 nM

Source: article PMC7663263 (Molecules, 2020)
